Assay [1] has as its system phospho-ERK in HCT116 (G13D) cells. Nature of the assay: Inhibition of KRas-mediated phosphorylation of ERK (in-cell western). The conditions noted are these: Homo sapiens, HCT-116, 3 hours compound, phospho-ERK normalized to GAPDH. Format: cell-based. The method, boiled down:
(§1)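 Fixed-cell immunodetection of ERK phosphorylation following 3 h compound treatment (0.5% DMSO). IC50 derived by 4-parameter fit of GAPDH-normalized signal versus DMSO control.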

Assay [2] deals with phospho-ERK in PSN-1 (G12R) cells. The description is as above. The class given is cell-based. The note with it: Homo sapiens, PSN1, 3 hours compound, phospho-ERK normalized to GAPDH. The method, boiled down:
as §1

The test system of assay [3] is phospho-ERK in MKN1 (WTdep) cells. Described as above. The class given is cell-based. The note with it: Homo sapiens, MKN-1, 3 hours compound, phospho-ERK normalized to GAPDH. The method, boiled down: as §1
Assay [4] concerns phospho-ERK in A549 (G12S) cells. The description is as above. The class given is cell-based. The note with it: Homo sapiens, 3 hours compound, phospho-ERK normalized to GAPDH. An outline of the steps: as §1
The test system of assay [5] is phospho-ERK in NCI-H460 (Q61H) cells. Described as above. The class given is cell-based. The conditions noted are these: Homo sapiens, NCI-H460, 3 h, 3 hours compound, phospho-ERK normalized to GAPDH. The method, boiled down:
as §1

Assay [6] deals with phospho-ERK in AsPC-1 (G12D) cells. The assay is described as above. Format: cell-based. The note with it: Homo sapiens, ASPC1, 3 h, 3 hours compound, phospho-ERK normalized to GAPDH. An outline of the steps:
as §1

For assay [7], the system named is phospho-ERK in NCI-H727 (G12V) cells. The description is as above. The class given is cell-based. The conditions noted are these: Homo sapiens, NCI-H727, 3 h, 3 hours compound, phospho-ERK normalized to GAPDH. The method, boiled down:
as §1

In assay [8] the test system is phospho-ERK in NCI-H358 (G12C) cells. The assay is described as above. The conditions noted are these: Homo sapiens, 3 hours compound, phospho-ERK normalized to GAPDH. Format: cell-based. An outline of the steps:
as §1

The next assay deals with pERK in PSN1 cells. Nature of the assay: Inhibition of KRas phosphorylation of ERK (Cisbio HTRF pERK assay). The conditions noted are these: Homo sapiens, PSN1, 3 h, read-out: Inhibition (HTRF IC50) of KRas-mediated Phosphorylation of ERK, PSN1. (In general: TR-FRET usually uses a lanthanide donor and a delayed reading to cut background.)
The subject of a further assay is pERK in MKN1 cells. The description is as above. The note with it: Homo sapiens, MKN-1, 3 h, read-out: Inhibition (HTRF IC50) of KRas-mediated Phosphorylation of ERK, MKN1.
The next assay deals with KRas G12V (Homo sapiens, UniProt P01116, G12V). Nature of the assay: biochemical.
For the next assay, the target named is KRas G12S (Homo sapiens, UniProt P01116, G12S). Nature of the assay: biochemical.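 Also: TR-FRET displacement binding to KRas, read after one hour incubation at room temperature, IC50 from four-parameter fit of percent of control.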
The next assay has as its target KRas G12C (Homo sapiens, UniProt P01116, G12C). In words: biochemical.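 Also: binding to KRas assessed by TR-FRET displacement after one hour incubation at room temperature, potency fitted from percent-of-control values.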
Another assay addresses KRas G12R (Homo sapiens, UniProt P01116, G12R). In words: biochemical.
The next assay addresses KRas WT (Homo sapiens, UniProt P01116). Nature of the assay: biochemical.
The next assay concerns the target KRas G12A (Homo sapiens, UniProt P01116, G12A). In words: biochemical.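 Also: binding to KRas measured by TR-FRET displacement after one hour at room temperature, IC50 from a four-parameter fit of percent-of-control values.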
The target in another assay is KRas G12D (Homo sapiens, UniProt P01116, G12D). Nature of the assay: biochemical.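 Also: TR-FRET displacement binding assay on KRas, read after a one-hour incubation at room temperature, IC50 fitted from percent-of-control values.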
Another assay has as its system pERK in ASPC1 cells. Nature of the assay: Inhibition of KRas phosphorylation of ERK (Cisbio HTRF pERK assay). The conditions noted are these: Homo sapiens, ASPC1, read-out: Inhibition (HTRF IC50) of KRas-mediated Phosphorylation of ERK, AsPC-1.
For a further assay, the system named is pERK in H727 cells. The assay is described as above. The conditions noted are these: Homo sapiens, NCI-H727, read-out: Inhibition (HTRF IC50) of KRas-mediated Phosphorylation of ERK, H727.
For the next assay, the system named is pERK in HCT116 cells. Described as above. The note with it: Homo sapiens, HCT-116, read-out: Inhibition (HTRF IC50) of KRas-mediated Phosphorylation of ERK, HCT116.

The IC50 is the concentration needed to halve the response being measured.

KRas G12D, sequence (P01116 1-169 isoform P01116-2 G12D): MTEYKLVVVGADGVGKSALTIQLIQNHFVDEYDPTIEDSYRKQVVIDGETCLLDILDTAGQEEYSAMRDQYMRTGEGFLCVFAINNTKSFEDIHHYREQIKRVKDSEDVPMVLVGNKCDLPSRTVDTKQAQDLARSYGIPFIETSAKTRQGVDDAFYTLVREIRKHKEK
KRas G12R, sequence (P01116 1-169 isoform P01116-2 G12R): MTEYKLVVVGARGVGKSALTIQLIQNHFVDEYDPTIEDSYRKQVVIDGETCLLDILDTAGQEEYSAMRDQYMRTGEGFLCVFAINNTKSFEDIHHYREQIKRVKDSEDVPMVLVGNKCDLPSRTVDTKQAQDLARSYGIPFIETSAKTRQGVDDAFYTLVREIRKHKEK
KRas G12V, sequence (P01116 1-169 isoform P01116-2 G12V): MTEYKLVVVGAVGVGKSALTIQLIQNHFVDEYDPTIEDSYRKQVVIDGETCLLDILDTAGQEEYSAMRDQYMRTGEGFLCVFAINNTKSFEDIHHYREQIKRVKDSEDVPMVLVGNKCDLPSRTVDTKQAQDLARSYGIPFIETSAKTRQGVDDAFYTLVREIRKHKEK
KRas G12S, sequence (P01116 1-169 isoform P01116-2 G12S): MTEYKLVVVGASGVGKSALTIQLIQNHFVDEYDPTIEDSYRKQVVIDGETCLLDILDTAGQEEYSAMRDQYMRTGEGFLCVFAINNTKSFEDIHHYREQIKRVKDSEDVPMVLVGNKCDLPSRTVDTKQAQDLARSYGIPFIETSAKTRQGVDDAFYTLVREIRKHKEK
KRas WT, sequence (P01116 1-169 isoform P01116-2): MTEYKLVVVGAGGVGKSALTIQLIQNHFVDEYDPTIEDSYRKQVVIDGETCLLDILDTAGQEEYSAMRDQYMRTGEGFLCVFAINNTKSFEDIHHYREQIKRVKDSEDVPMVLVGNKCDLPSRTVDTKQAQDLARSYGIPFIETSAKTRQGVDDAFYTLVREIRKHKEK
KRas G12C, sequence (P01116 1-169 isoform P01116-2 G12C): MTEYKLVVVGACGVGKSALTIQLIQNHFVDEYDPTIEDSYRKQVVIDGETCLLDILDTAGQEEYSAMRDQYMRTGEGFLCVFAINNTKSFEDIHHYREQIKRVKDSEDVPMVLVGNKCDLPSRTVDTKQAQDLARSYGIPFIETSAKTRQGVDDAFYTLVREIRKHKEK
KRas G12A, sequence (P01116 1-169 isoform P01116-2 G12A): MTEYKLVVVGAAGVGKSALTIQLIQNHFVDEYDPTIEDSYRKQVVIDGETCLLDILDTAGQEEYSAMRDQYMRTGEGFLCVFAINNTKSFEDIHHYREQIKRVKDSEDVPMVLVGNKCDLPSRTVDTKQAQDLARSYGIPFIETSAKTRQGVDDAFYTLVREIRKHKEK

For the compound `CCc1c(F)ccc2cccc(-c3ncc4c(N5CCC[C@@](C)(O)C5)nc(OC[C@@]56CCCN5C[C@H](F)C6)nc4c3F)c12` [Example 16, (R)-1-(7-(8-ethyl-7-fluoronaphthalen-1-yl)-8-fluoro-2-(((2R,7aS)-2-fluorohexahydro-1H-pyrrolizin-7a-yl)methoxy)pyrido[4,3-d]pyrimidin-4-yl)-3-methylpiperidin-3-ol], the IC50 in assay [1] is 2180 nM; in assay [2], ≥ 10000 nM; in assay [3] it was 802 nM; in assay [4] it was 1760 nM; in assay [5] it was 113 nM; in assay [6], 654 nM. The IC50 in assay [7] is ≥ 10000 nM; in [8], 1180 nM; in the assay on pERK in PSN1 cells, ≥ 10000 nM; with pERK in MKN1 cells it was 275 nM.
For `C#Cc1c(F)ccc2cc(O)cc(-c3ncc4c(N5CCCC6(CNC(=O)C6)C5)nc(OC[C@@]56CCCN5C[C@H](F)C6)nc4c3F)c12` (stereo partly shown) [Example 24], the IC50 in assay [1] is 1370 nM; in assay [2], 3690 nM; in [3], 406 nM; in assay [4], ≥ 10000 nM; in [5] it was 2820 nM; in [6], 1680 nM. Besides, the IC50 in [7] is 4720 nM; in [8] it was 454 nM; on KRas G12V, ≤ 2 nM; on KRas G12S, ≤ 2 nM; against KRas G12C it was ≤ 2 nM; at KRas G12R it was ≤ 2 nM. Further, the IC50 against KRas WT, against KRas G12A and against KRas G12D was ≤ 2 nM each time.
Regarding `CC1(O)CCCN(c2nc(OCC34CCCN3CCC4)nc3c(F)c(-c4cc(O)cc(Cl)c4C4CC4)ncc23)C1` (stereo not shown) [Example 71, 1-(7-(3-chloro-2-cyclopropyl-5-hydroxyphenyl)-8-fluoro-2-((tetrahydro-1H-pyrrolizin-7a(5H)-yl)methoxy)pyrido[4,3-d]pyrimidin-4-yl)-3-methylpiperidin-3-ol], the IC50 in the assay with pERK in ASPC1 cells is 2100 nM; in assay [1] it was 1950 nM; in [2], ≥ 10000 nM; in assay [3], 140 nM; in assay [4], ≥ 10000 nM; in [5] it was 2170 nM. For the same compound, the IC50 in assay [6] was 4730 nM; in [7] it was 2240 nM; in [8], 361 nM; on KRas G12V, ≤ 2 nM; against KRas G12R, 6 nM; at KRas G12D, 3 nM. Besides, in the assay with pERK in H727 cells, the IC50 was 1920 nM.
Turning to `C[C@@H]1C[C@@H]1c1c(Cl)cc(O)cc1-c1ncc2c(N3CCCC(C)(O)C3)nc(OCC34CCCN3CCC4)nc2c1F` (stereo partly drawn) [Example 132, 1-(7-(3-chloro-5-hydroxy-2-((1S,2R)-2-methylcyclopropyl)phenyl)-8-fluoro-2-((tetrahydro-1H-pyrrolizin-7a(5H)-yl)methoxy)pyrido[4,3-d]pyrimidin-4-yl)-3-methylpiperidin-3-ol], the IC50 with pERK in ASPC1 cells was 623 nM; in [1], ≥ 10000 nM; in assay [2], ≥ 10000 nM; in assay [3], 27 nM; in [4], ≥ 10000 nM; in assay [5], 206 nM. The IC50 in assay [6] was 104 nM; in assay [7], ≥ 10000 nM; in assay [8], 131 nM; at KRas G12V it was 5 nM; against KRas G12R it was 6 nM; on KRas G12D it was 9 nM. Besides, the IC50 in the assay on pERK in H727 cells is 912 nM.
As to `CCc1c(F)ccc2cc(O)cc(-c3ncc4c(N5CCCC6(CNC(=O)N6)C5)nc(OC[C@@]56CCCN5C[C@H](F)C6)nc4c3F)c12` (stereo partly shown) [Example 133], the IC50 is 144 nM with pERK in ASPC1 cells; 650 nM in assay [1]; ≥ 10000 nM in assay [2]; 171 nM in [3]; 55 nM in [4]; 49 nM in assay [5]. The IC50 is 156 nM in assay [6]; 612 nM in assay [7]; 41 nM in [8]; ≤ 2 nM against KRas G12V; 360 nM in the assay with pERK in HCT116 cells; ≤ 2 nM against KRas G12R. Further, the figures for the IC50 on KRas G12D and in the assay with pERK in H727 cells were ≤ 2 nM and 246 nM, respectively.
Take `CCc1c(F)ccc2cc(O)cc(-c3ncc4c(NCCC(N)=O)nc(OC[C@@]56CCCN5C[C@H](F)C6)nc4c3F)c12` [Example 141]: the IC50 is 641 nM in the assay on pERK in ASPC1 cells; ≥ 10000 nM in assay [1]; ≥ 10000 nM in [2]; 282 nM in assay [3]; 875 nM in [4]; 1110 nM in assay [5]. The half-inhibitory concentration (IC50) in [6] is 210 nM; in assay [7] it was ≥ 10000 nM; in assay [8] it was 88 nM; against KRas G12V, ≤ 2 nM; against KRas G12R, ≤ 2 nM; at KRas G12D it was ≤ 2 nM. In addition, in the assay on pERK in H727 cells, the IC50 was determined as 2130 nM.
For `CCc1c(F)ccc2cc(O)cc(-c3ncc4c(NCCCc5ccncc5)nc(OC[C@@]56CCCN5C[C@H](F)C6)nc4c3F)c12` [Example 176, 5-ethyl-6-fluoro-4-(8-fluoro-2-(((2R,7aS)-2-fluorohexahydro-1H-pyrrolizin-7a-yl)methoxy)-4-((3-(pyridin-4-yl)propyl)amino)pyrido[4,3-d]pyrimidin-7-yl)naphthalen-2-ol], the IC50 was ≥ 10000 nM in assay [1]; ≥ 10000 nM in assay [2]; 701 nM in assay [3]; ≥ 10000 nM in assay [4]; 3510 nM in assay [5]; ≥ 10000 nM in [6]. In addition, the IC50 in assay [7] is 3950 nM; in assay [8], 1250 nM; at KRas G12V, 20 nM; against KRas G12R, 30 nM; at KRas G12D, 108 nM.
As to `CCc1c(F)ccc2cc(O)cc(-c3ncc4c(OCCCc5cccnc5)nc(OC[C@@]56CCCN5C[C@H](F)C6)nc4c3F)c12` [Example 298, 5-ethyl-6-fluoro-4-(8-fluoro-2-(((2R,7aS)-2-fluorohexahydro-1H-pyrrolizin-7a-yl)methoxy)-4-(3-(pyridin-3-yl)propoxy)pyrido[4,3-d]pyrimidin-7-yl)naphthalen-2-ol], the IC50 in [1] is ≥ 10000 nM; in [2], ≥ 10000 nM; in assay [3] it was 2710 nM; in [4], ≥ 10000 nM; in [5], ≥ 10000 nM; in [6] it was ≥ 10000 nM. For the same compound, the IC50 is ≥ 10000 nM in assay [7]; 5010 nM in assay [8]; 133 nM on KRas G12V; 99 nM on KRas G12R; 1520 nM against KRas G12D.

(Values after patent US12398154B2, “Azaquinazoline pan-KRas inhibitors” (Mirati Therapeutics, Inc., priority 2020, dated 2025).)
